{
  "source": "ChEMBL document CHEMBL1126211",
  "about": "“Arylamides of hydroxylated isoquinolines as protein-tyrosine kinase inhibitors” (Bioorg Med Chem Lett, 1992)",
  "key": {"[1]": {"biological_target": "Tyrosine-protein kinase Lck (Homo sapiens, UniProt P06239)", "sequence (P06239 whole entry)": "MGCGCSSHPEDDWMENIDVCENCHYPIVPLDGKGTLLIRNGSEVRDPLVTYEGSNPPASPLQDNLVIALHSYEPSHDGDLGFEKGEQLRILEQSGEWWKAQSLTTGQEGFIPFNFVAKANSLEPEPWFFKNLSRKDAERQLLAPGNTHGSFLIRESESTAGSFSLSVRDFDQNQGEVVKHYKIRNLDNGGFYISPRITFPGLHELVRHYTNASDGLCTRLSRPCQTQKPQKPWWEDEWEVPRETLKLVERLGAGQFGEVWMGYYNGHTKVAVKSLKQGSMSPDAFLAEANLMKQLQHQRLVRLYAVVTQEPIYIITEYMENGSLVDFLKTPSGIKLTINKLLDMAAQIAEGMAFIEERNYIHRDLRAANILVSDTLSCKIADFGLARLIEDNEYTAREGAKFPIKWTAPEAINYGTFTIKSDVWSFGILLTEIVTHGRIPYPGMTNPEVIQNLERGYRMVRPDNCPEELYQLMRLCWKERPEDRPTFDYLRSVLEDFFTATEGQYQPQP", "test": "Inhibition of p56 lck tyrosine kinase"}, "[2]": {"biological_target": "Epidermal growth factor receptor (Homo sapiens, UniProt P00533)", "sequence (P00533 whole entry)": "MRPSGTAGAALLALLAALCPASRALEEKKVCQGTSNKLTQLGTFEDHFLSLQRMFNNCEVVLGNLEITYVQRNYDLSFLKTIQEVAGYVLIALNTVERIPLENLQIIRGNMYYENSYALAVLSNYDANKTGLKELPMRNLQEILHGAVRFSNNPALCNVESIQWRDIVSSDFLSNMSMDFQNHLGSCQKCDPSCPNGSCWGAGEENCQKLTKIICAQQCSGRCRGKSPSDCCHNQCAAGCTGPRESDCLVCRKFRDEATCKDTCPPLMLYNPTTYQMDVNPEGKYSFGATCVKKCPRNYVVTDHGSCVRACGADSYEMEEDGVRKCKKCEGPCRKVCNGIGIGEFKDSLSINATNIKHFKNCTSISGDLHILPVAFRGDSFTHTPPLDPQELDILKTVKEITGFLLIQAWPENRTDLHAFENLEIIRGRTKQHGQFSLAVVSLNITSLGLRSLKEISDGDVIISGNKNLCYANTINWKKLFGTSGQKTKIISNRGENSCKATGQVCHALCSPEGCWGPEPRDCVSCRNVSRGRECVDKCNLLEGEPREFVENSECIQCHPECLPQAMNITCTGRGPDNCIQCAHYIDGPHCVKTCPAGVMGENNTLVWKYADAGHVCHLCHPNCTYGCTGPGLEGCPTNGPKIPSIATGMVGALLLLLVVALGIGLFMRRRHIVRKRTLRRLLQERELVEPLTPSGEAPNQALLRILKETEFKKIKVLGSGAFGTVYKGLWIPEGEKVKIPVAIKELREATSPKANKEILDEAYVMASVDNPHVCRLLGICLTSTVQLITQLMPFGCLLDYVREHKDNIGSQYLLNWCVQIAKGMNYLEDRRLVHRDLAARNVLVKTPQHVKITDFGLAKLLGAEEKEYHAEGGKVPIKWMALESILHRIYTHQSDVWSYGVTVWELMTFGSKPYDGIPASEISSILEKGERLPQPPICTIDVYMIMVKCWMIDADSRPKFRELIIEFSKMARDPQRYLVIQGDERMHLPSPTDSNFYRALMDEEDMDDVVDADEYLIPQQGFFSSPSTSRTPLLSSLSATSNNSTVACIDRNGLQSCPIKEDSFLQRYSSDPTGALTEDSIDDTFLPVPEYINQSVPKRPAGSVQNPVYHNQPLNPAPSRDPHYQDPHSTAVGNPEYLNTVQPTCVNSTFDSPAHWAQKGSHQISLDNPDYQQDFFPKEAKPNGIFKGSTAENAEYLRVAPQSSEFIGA", "test": "Inhibition of epidermal growth factor receptor (EGFR)"}},
  "note": "pIC50: −log10 of the molar value.",
  "data": [
    {"smiles": "NC(=O)c1cc2cc(O)c(O)cc2cn1", "values": [
      {"measurement": "pIC50", "setting": "[1]", "value": 2.72},
      {"measurement": "pIC50", "setting": "[2]", "value": "< 4.00"}
    ]},
    {"smiles": "N#C/C(=C\\c1ccc(O)c(O)c1)C(N)=O", "values": [
      {"measurement": "pIC50", "setting": "[2]", "value": 4.70}
    ]},
    {"smiles": "O=C(NCc1ccccc1)c1cc2cc(O)c(O)cc2cn1", "values": [
      {"measurement": "pIC50", "setting": "[1]", "value": "< 3.00"},
      {"measurement": "pIC50", "setting": "[2]", "value": 5.51}
    ]},
    {"smiles": "NC(=O)c1cc2ccc(O)c(O)c2cn1", "values": [
      {"measurement": "pIC50", "setting": "[1]", "value": 6.30},
      {"measurement": "pIC50", "setting": "[2]", "value": "< 4.00"}
    ]},
    {"smiles": "O=C(NCc1ccccc1)c1cc2ccc(O)c(O)c2cn1", "values": [
      {"measurement": "pIC50", "setting": "[1]", "value": 6.00},
      {"measurement": "pIC50", "setting": "[2]", "value": 5.85}
    ]},
    {"smiles": "O=C(Nc1ccccc1)c1cc2ccc(O)c(O)c2cn1", "values": [
      {"measurement": "pIC50", "setting": "[1]", "value": 6.00},
      {"measurement": "pIC50", "setting": "[2]", "value": 5.11}
    ]},
    {"smiles": "O=C(NCCc1ccccc1)c1cc2ccc(O)c(O)c2cn1", "values": [
      {"measurement": "pIC50", "setting": "[1]", "value": 4.40},
      {"measurement": "pIC50", "setting": "[2]", "value": 5.85}
    ]},
    {"smiles": "O=C(Nc1ccccc1)c1cc2cc(O)c(O)cc2cn1", "values": [
      {"measurement": "pIC50", "setting": "[1]", "value": 3.22},
      {"measurement": "pIC50", "setting": "[2]", "value": 5.25}
    ]}
  ]
}
